Experimental data as given in US7851500B2, “Aminopyrazole kinase inhibitors” (Bristol-Myers Squibb Company, priority 2007, dated 2010).

Molecular target: IGF1-receptor (Homo sapiens, UniProt P08069)
Assay: IGF1-Receptor Tyrosine Kinase Assay
Assay type: biochemical
Conditions: ATP 25 μM; FL-peptide 1.5 μM; IGF1-Receptor 14 nM; 60 min room temperature; Caliper LabChip 3000; read-out: IGF-1R IC50
Procedure: D. IGF1-Receptor Tyrosine Kinase Assay
The assays were performed in U-bottom 384-well plates. The final assay volume was 30 μl prepared from 15 μl additions of enzyme and substrates (fluoresceinated IGF1R substrate peptide and ATP) and test compounds in assay buffer (100 mM HEPES pH 7.4, 10 mM MnCl2, 0.015% Brij35 and 4 mM DTT). The reaction was initiated by the combination of IGF1-receptor with substrates and test compounds. The reaction was incubated at room temperature for 60 min. and terminated by adding 30 μl of 35 mM EDTA to each sample. The reaction mixture was analyzed on the Caliper LabChip 3000 by electrophoretic separation of the fluorescent substrate and phosphorylated product. Inhibition data were calculated by comparison to no enzyme control reactions for 100% inhibition and vehicle-only reactions for 0% inhibition. The final concentration of reagents in the assays is ATP, 25 μM; FL-peptide, 1.5 μM; IGF1-Receptor, 14 nM; and DMSO, 1.6%. Dose response curves were generated to determine the concentration required inhibiting 50% of kinase activity (IC50). Compounds were dissolved at 10 mM in dimethylsulfoxide (DMSO) and evaluated at eleven concentrations, each in duplicate. IC50 values were derived by non-linear regression analysis
Compounds described herein were tested in the above assay.

Sequence of IGF1-receptor (P08069 31-1367): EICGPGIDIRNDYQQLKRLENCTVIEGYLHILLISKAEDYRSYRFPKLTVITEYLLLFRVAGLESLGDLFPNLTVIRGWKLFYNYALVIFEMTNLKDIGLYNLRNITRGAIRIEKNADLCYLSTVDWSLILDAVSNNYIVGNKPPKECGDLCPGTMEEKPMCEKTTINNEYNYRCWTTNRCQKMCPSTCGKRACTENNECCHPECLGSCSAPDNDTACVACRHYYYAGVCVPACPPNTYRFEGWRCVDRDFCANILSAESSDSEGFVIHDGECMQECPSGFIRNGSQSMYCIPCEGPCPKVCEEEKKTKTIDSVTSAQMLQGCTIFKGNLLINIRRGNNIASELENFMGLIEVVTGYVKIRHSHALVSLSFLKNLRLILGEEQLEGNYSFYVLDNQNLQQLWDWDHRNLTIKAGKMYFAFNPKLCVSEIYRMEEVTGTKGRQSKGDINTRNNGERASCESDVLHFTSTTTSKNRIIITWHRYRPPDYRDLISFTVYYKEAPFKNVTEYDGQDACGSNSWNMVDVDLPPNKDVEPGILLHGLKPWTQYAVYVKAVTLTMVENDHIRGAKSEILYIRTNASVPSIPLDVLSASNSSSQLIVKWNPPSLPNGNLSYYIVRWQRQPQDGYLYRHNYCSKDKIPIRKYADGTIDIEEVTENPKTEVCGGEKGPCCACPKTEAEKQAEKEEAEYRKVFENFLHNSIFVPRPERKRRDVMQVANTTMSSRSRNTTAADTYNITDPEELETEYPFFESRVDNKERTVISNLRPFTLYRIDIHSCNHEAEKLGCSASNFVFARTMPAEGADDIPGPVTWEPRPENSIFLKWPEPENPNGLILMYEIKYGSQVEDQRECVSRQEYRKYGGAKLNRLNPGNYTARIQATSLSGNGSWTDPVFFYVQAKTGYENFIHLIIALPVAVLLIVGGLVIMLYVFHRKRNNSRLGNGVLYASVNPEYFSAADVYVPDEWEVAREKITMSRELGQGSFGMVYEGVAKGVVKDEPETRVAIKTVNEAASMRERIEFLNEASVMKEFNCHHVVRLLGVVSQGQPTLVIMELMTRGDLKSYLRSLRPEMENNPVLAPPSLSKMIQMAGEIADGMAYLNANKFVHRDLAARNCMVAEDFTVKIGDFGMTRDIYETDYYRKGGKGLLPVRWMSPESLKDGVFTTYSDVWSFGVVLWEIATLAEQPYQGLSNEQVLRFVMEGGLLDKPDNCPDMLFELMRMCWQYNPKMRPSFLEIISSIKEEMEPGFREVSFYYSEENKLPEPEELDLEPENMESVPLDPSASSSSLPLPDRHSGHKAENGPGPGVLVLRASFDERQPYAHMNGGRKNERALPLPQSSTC

SMILES | IC50 [nM]
CCOC(=O)c1cccc(Sc2cc(Nc3ncnn4cccc34)n[nH]2)c1 [Example 1, Ethyl 3-(3-(pyrrolo[1,2-f][1,2,4]triazin-4-ylamino)-1H-pyrazol-5-ylthio)benzoate] | > 25000
O=C(NC1CN(S(=O)(=O)c2ccccc2)C1)c1cccc(Sc2cc(Nc3ncnn4cccc34)n[nH]2)c1 [Example 3, N-(1-(Phenylsulfonyl)azetidin-3-yl)-3-(3-pyrrolo[1,2-f][1,2,4]triazin-4-ylamino-1H-pyrazol-5-ylthio)benzamide] | 12.4
NC(=O)c1cccc(Sc2cc(Nc3ncnn4cccc34)n[nH]2)c1 [Example 4, 3-(3-(Pyrrolo[1,2-f][1,2,4]triazin-4-ylamino)-1H-pyrazol-5-ylthio)benzamide] | 4470
CC(C)(C)OC(=O)N1CC(NC(=O)c2cccc(Sc3cc(Nc4ncnn5cccc45)n[nH]3)c2)C1 [Example 5] | 295

Continued by falling IC50, values first:

IC50 [nM] | SMILES
3190 | O=C(NCCc1c[nH]cn1)c1cccc(Sc2cc(Nc3ncnn4cccc34)n[nH]2)c1 [Example 8, N-(2-(1H-Imidazol-4-yl)ethyl)-3-(3-(pyrrolo[1,2-f][1,2,4]triazin-4-ylamino)-1H-pyrazol-5-ylthio)benzamide]
15.1 | O=C(NC1CN(S(=O)(=O)c2ccc(F)cc2)C1)c1cccc(Sc2cc(Nc3ccccn3)n[nH]2)c1 [Example 10, N-(1-(4-Fluorophenylsulfonyl)azetidin-3-yl)-3-(3-(pyridin-2-ylamino)-1H-pyrazol-5-ylthio)benzamide]
